Measurements published in the supplement of paper PMC8837787.

Tested on: Saccharomyces cerevisiae ABC16-Green Monster
Assay: growth inhibition at single dose (up to 150 µM), below the 70% cut-off for dose-response; higher = more potent
Details: 18 h; 30 °C; YPD
Outline: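 Drug-sensitive S. cerevisiae ABC16-Green Monster cells were grown overnight in YPD at 30 °C and diluted to log phase (OD600 0.1–0.2). Each library compound was added at one dose of 150 µM to 200 µl culture per well in 96-well plates, in biological duplicates, with untreated cultures alongside. OD600 was read at 0 h and after 18 h at 30 °C. The value is percent growth inhibition; compounds below 70% in both replicates were not taken to dose-response.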

Compound	growth inhibition at single dose [%]
Cc1cc([N+](=O)[O-])cc(S(=O)(=O)N(Cc2ccc(C(=O)NC3CC3)cc2)C2CC2)c1C	< 70
CN(CC(=O)NC1CC1)C(=O)CNc1ccccc1Oc1ccccc1	< 70
COc1ccccc1-c1noc(-c2cc3c(s2)CCCCC3)n1	< 70
Cc1cccc(N2C(=O)C3C(C2=O)C2(c4ccccc4)C(=O)C3(c3ccccc3)C(c3ccc4c(c3)OCO4)=C2c2ccc3c(c2)OCO3)c1 (stereo not drawn)	< 70
Cc1c(C)n(CCCO)c2ncn3nc(-c4ccc(F)cc4)nc3c12	< 70
CNc1nc(SCCS(=O)(=O)c2ccccc2)nc2ccccc12	< 70
Oc1ccccc1CN1CCC2(CCCN(Cc3ccccc3F)C2)C1 (stereo not drawn)	< 70
CCN(CC)CCCCCCNc1cc(OC)cc2c(C)ccnc12	< 70
COc1cccc(-c2nn(C)c3sc(C(=O)NCCN4CCN(c5ccccc5F)CC4)cc23)c1	< 70
COc1ccc(NC(=O)c2ccn[nH]2)cc1NC(=O)c1ccc(Cl)cc1F	< 70
C=CCn1c(SCc2c(C)noc2C)nc2scc(C3CC3)c2c1=O	< 70
C/N=c1\scc(-c2ccco2)n1/N=C/c1sccc1C	< 70
Cc1ccc(NC(=O)c2cc3c(s2)CCCCCC3)nc1	< 70
Cc1cc(C(=O)Nc2nc3ccccc3s2)c(C)n1C(C)C	< 70
Cc1cc(C(=O)Nc2ccc(-c3ccccc3)cc2)no1	< 70
CCOC(=O)c1cn(CC)c2cc(N3CCCCC3)c(F)cc2c1=O	< 70
O=C(Nc1ccc(N2CCCCCC2)cc1)c1ccc[nH]1	< 70
Cc1cccc(N2CCN(C(=O)c3ccc4[nH]c(C)c(C)c4c3)CC2)c1C	< 70
CNc1nc(-c2[nH]c(C)c(C(=O)OC)c2C)cs1	< 70
Cc1cc(Nc2ccc3ccccc3c2)n2ncnc2n1	< 70
COc1cc(NS(=O)(=O)c2ccc(C)cc2)c(OC)cc1Cl	< 70
O=C(Nc1nc2ccc(OC(F)(F)F)cc2s1)c1cnccn1	< 70
COc1ccc(-n2nc(C)c3c2NC(=O)CC3c2ccc3c(c2)OCO3)cc1 (stereo not drawn)	< 70
Clc1ccc(-n2cc(COc3ccnc4ccccc34)nn2)cc1	< 70

Compound	growth inhibition at single dose [%]
COc1ccc(C2Sc3ccccc3N=C3C2=C(O)c2ccccc23)cc1 (stereo not drawn)	< 70
Cc1ccc(/C(C#N)=C/c2ccc(N(C)C)cc2)cc1	< 70
CCOc1ccc2cc(-c3nn(CC4CCN(C)CC4)c4ncnc(N)c34)ccc2c1	< 70
O=C(Nc1nc2cc3c(cc2s1)OCCO3)c1cccc2c[nH]nc12	< 70
CCN(CC)CCNc1ncnc2c1[nH]c1ccc(Br)cc12	< 70
Oc1c2c(nc3ccccc13)CCCC2	< 70
CCOC(=O)c1c(NC(=O)c2ccccc2)sc2c(O)c(CN(CC)CC)ccc12	< 70
CC(Oc1ccc(Cl)cc1)C(=O)Nc1sccc1C(N)=O (stereo not drawn)	< 70
COc1ccc(N(CCCN2C(=O)c3cccc4cccc(c34)C2=O)C(=O)c2ccccc2Cl)cc1	< 70
CNC(=O)CNc1nc(-c2ccccn2)nc2scc(-c3ccccc3)c12	< 70
CCCn1nc(C(=O)NCCc2ccc(-n3cccn3)cc2)c2ccccc2c1=O	< 70
CC(C)(C)c1ccc(C2CC3=Nc4ccccc4N(C(=O)c4ccccc4Cl)C(c4ccc(F)cc4)C3=C(O)C2)cc1 (stereo not drawn)	< 70
COc1ccc(C=C2SC(Nc3ccc(F)cc3)=NC2=O)c(OC)c1	< 70
Cc1cccn2c(=O)cc(CN3C(=O)NC(C)(c4ccc(F)cc4)C3=O)nc12 (stereo not drawn)	< 70
CC(C)(C)c1ccc(N[C@@H]2CCCC[C@H]2NC(=O)c2ccco2)cc1	< 70
CN1CCN(c2ccc(Cl)cc2NC(=O)c2cccc(Oc3ccccc3)c2)CC1	< 70
Cc1c(C)n(CCCO)c2ncn3nc(-c4ccccc4O)nc3c12	< 70
Cc1cc(NC(=O)c2cccc(S(=O)(=O)N3c4ccccc4CC3C)c2)no1 (stereo not drawn)	< 70
CC(C)=CCN1CCC(C(=O)Nc2ccc(-c3nc4ccccc4[nH]3)cc2)CC1	< 70
COc1cc(C(=O)Nc2ccc(-c3nc4ccccc4[nH]3)cc2)cc(OC)c1OC	< 70
COc1cc(NC(=O)Cc2nn(C)c(=O)c3ccccc23)ccc1Cl	< 70
C=CCn1c(C)cc(C(=O)CSc2nc3ccccc3s2)c1C	< 70
CC(C)c1nc2cc(NC(=O)CSc3nnnn3C3CC3)ccc2o1	< 70
O=C(NC1CCN(c2nccc(C(F)(F)F)n2)CC1)c1ccco1	< 70

Compound	growth inhibition at single dose [%]
COC(=O)c1c(C)[nH]c(C(=O)Nc2ccc(C)cn2)c1C	< 70
CCOc1ccc(C2N(C)c3ccccc3N2C)cc1	< 70
O=C(CCc1ccco1)NC1CCN(CC2(c3ccc(Cl)cc3)CCC2)CC1	< 70
Cc1cccc(NC(=O)c2cc(S(=O)(=O)N(C)c3ccc(F)cc3)ccc2Cl)n1	< 70
Nc1nc(N)c2c3c(sc2n1)CN(Cc1ccccc1)CC3	< 70
CC(=O)c1c(C)[nH]c(C(=O)Nc2nc3ccccc3[nH]2)c1C	< 70
Cc1ccc(C(=O)NC(C)C)n1C	< 70
COc1ccccc1CNC(=O)C1c2ccccc2C(=O)N(CC(C)C)C1c1cccs1 (stereo not drawn)	< 70
CCCc1c(C)nc2ccc(Br)cc2c1O	< 70
O=c1cc(-c2ccccc2)[nH]c2ccccc12	< 70
CC[C@H](CO)NCCN[C@H](CC)CO	< 70
COc1ccccc1CNC(=O)CCn1c(=O)[nH]c2ccccc2c1=O	< 70
O=C(Nc1ccc(-c2nc3ccccc3[nH]2)cc1)C1CCC1	< 70
CCCn1c(CNc2ccccc2O)nc2ccccc21	< 70
O=C(NCc1ccco1)C1CCN(S(=O)(=O)c2ccc(Br)cc2)CC1	< 70
O=C(Nc1ccccc1)c1ccc(CN2CCN(CCOc3ccccc3)CC2)cc1	< 70
Cc1cnc(CCNC(=O)c2cc(-c3ccc(Cl)cc3)cs2)[nH]1	< 70
Cc1cc(N2CCN(C3CCCC3)CC2)n2c(nc3ccccc32)c1C#N	< 70
N=C(N)c1ccc(-c2cc(-c3ccccc3)on2)cc1	< 70
CC(C)(C)c1ccc(C(=O)Nc2c3c(nn2-c2cccc(Cl)c2)CSC3)cc1	< 70
Cc1cc(Nc2ccc(C(F)(F)F)cc2)n2ccnc2n1	< 70
COc1cc(CNC(=O)c2scnc2C)ccc1OC1CCCC1	< 70
COc1ccc(-c2nonc2NC(=O)c2cccc(C)c2)cc1OC	< 70
CC(=O)c1c[nH]c(C(=O)OCC(=O)NCCc2ccc(C(C)C)cc2)c1	< 70

Compound	growth inhibition at single dose [%]
CS(=O)(=O)c1ccc(C(=O)N(CC2CCCO2)c2nc3ccccc3s2)cc1[N+](=O)[O-] (stereo not drawn)	< 70
COc1ccc(C2=C(c3ccc(OC)cc3)C3(c4ccccc4)C(=O)C2(c2ccccc2)C2C(=O)N(c4ccc(C)cc4)C(=O)C23)cc1 (stereo not drawn)	< 70
CCCCc1ccc(NC(=O)Nc2ccc(O[C@H]3CCCC[C@@H]3N(C)c3ccccc3)c(F)c2)cc1	< 70
Cc1nn(C)c(C)c1NS(=O)(=O)c1c(Cl)cc(-c2ccnc(N3CCNCC3)c2)cc1Cl	< 70
Cc1[nH]c(-c2ccc(F)cc2)cc1C(=O)NC1CCN(Cc2ccccc2)CC1	< 70
CC(C)NC(=O)NCc1ccc(C(=O)OCC(=O)C(C#N)=C2Nc3ccccc3N2)cc1	< 70
CC(C)N=c1cc2n(-c3ccc(Cl)cc3)c3ccccc3nc-2cc1Nc1ccc(Cl)cc1	< 70
COc1ccc(-c2csc(N/C=C3/C(=O)NC(=O)c4ccccc43)n2)cc1OC	< 70
O=C(C1CCN(c2nnc(-n3cccc3)s2)CC1)N1CCC(Cc2ccccc2)CC1	< 70
COc1ccc(O)c(C(=O)c2cc(Cl)c3nc4ccccc4c(=O)n3c2)c1	< 70
CC1=C(CC(=O)c2cccc([N+](=O)[O-])c2)C(=O)c2ccccc2C1=O	< 70
Cc1nc(/C=C/C(=O)Nc2nc3ccccc3[nH]2)cs1	< 70
CCOC(=O)CSCc1noc(COc2ccc(Cl)cc2Cl)n1	< 70
CC(=O)NCC1CN(c2ccc(-c3ccc(CNCc4cn[nH]n4)cc3)c(F)c2)C(=O)O1 (stereo not drawn)	< 70
CSc1nc2nc(C)c(CCC(=O)N(CC(F)(F)F)C(C)C3CC3)c(C)n2n1 (stereo not drawn)	< 70
CCC(C)NCC(O)(c1ccc(Cl)cc1)c1ccc(Cl)cc1 (stereo not drawn)	< 70
CCOc1ccccc1NC(=O)/C=C/c1nnc2c3ccccc3cnn12	< 70
COc1ccc(-c2cc(NC(=O)c3ccc(F)cc3Cl)ccc2OC)cc1	< 70
Oc1ccc(Cl)cc1CNc1nc2ccccc2[nH]1	< 70
CC1=C(C#N)C(/C=N/N(C)c2ncc(C(F)(F)F)cc2Cl)CC(=O)N1 (stereo not drawn)	< 70
CNc1nnc(Sc2ncnc3ccsc23)s1	< 70
